The values below come from ChEMBL document CHEMBL6134835, “Rezatapopt (PC14586): A First-in-Class Small Molecule p53 Y220C Mutant Protein Stabilizer in Clinical Trials” (J Med Chem, 2025).

The subject of series [1] is Cellular tumor antigen p53 (Homo sapiens), P04637 [Y220C]. The series can be described thus: Reactivation of N-terminal 6xHis-tagged recombinant p53 Y220C mutant (94 to 292 residues) (unknown origin) protein assessed as stabilization of Protein/DNA complex measuring substrate concentration required to increase DNA binding incubated for 48 mins by TR-FRET assay. A general note: TR-FRET usually uses a lanthanide donor and a delayed reading to cut background.

Series [2] concerns NUGC-3. The series can be described thus: Antitumor activity against human NUGC-3 cells xenografted in female Balb/c nude mouse assessed as tumor growth inhibition at 25 mg/kg, po relative to control. The format is functional. The following applies: read-out: TGI. For orientation: In xenograft studies the graft and the host belong to different species.
A short description of series [3]: Cmax in C57BL/6 mouse at 50 mg/kg, po measured for 24 hrs by LC-MS/MS analysis. The following applies: in vivo. It counts as ADME, organism-based.
Series [4] can be described thus: AUC (0 to last) in C57BL/6 mouse at 50 mg/kg, po measured for 24 hrs by LC-MS/MS analysis. It counts as ADME, organism-based. Conditions: in vivo.
Series [5] has as its system NUGC-3. Put plainly: Antitumor activity against human NUGC-3 cells xenografted in female Balb/c nude mouse assessed as tumor growth inhibition at 50 mg/kg, po relative to control. The format is functional. Conditions: read-out: TGI.

Take `CCN(CC)C1CCN(Cc2cc(C#CCNc3ccccc3)cc(I)c2O)CC1`: the EC1.5 in series [1] turned out to be 1.6 µM.
In the case of `CCn1c(C#CCNc2ccccc2)cc2cc(CNC)ccc21`, in series [1], the EC1.5 came out at 13.6 µM.
On to `CCn1c2ccccc2c2cc(CNC)ccc21`, for which the EC1.5 in series [1] worked out at 37.2 µM.
For `CN1CCC(Nc2cccc3c2cc(C#CCNc2ccc(C(C)(C)C#N)nc2)n3CC(F)(F)F)CC1`, the EC1.5 in series [1] is 0.054 µM.
The Cmax is the peak of the concentration-time curve. What is called AUC(0-t) is the area under the concentration-time curve up to a stated or last time point. Low readings indicate less exposure, high ones more exposure. Regarding `CNC(=O)c1ccc(NCC#Cc2cc3c(N[C@@H]4CCN(C)C[C@@H]4F)cccc3n2CC(F)(F)F)c(OC)c1` [REZATAPOPT], in the series with NUGC-3 [2], the inhibition in vivo at 25 mg/kg was 33%. Further, the highest level in series [3] (Cmax) was 16600 ng/mL. Further, the EC1.5 in series [1] was 0.009 µM. Besides, the AUC(0-t) at 24 h in series [4] was 163 µg·h/mL. In addition, in the series on NUGC-3 [5], the inhibition in vivo at 50 mg/kg was determined as 71%.
